Common to all, as to type: cell-based
Experiment [1] concerns colon cancer cells (HCT116). Put plainly: Cancer cell line growth inhibition (SRB assay). To be noted: Homo sapiens, HCT-116, read-out: Cancer Cell Line GI50 Range HCT116. In general terms: In SRB staining, fixed cells bind dye roughly in proportion to their protein.
The test system of experiment [2] is ovarian cancer cells (PA-1). Put plainly: Cancer cell line growth inhibition (SRB assay). To be noted: read-out: Cancer Cell Line GI50 Range PA-1.
The subject of experiment [3] is TICs (Colon 12). Put plainly: Colon tumor-initiating cell growth inhibition (Alamar Blue). To be noted: 216 h, 9 days, read-out: Tumor Initiating Cell GI50 Range Colon 12. (Alamar Blue is a resazurin reagent that responds to reducing activity.)
The test system of experiment [4] is TICs (Ovarian 2393A). Put plainly: Ovarian tumor-initiating cell growth inhibition (Alamar Blue). To be noted: 144 h, 6 days, read-out: Tumor Initiating Cell GI50 Range Ovarain 2393A.
[5] abbreviates: HCT116 colon cancer cells, SRB assay.
Where [6] appears, read: PA-1 ovarian cancer cells, SRB assay.

In patent US9580390B2, “Indazole compounds as kinase inhibitors and method of treating cancer with same” (University Health Network, priority 2011, dated 2017) one finds GI50 data, which are given here for 9 compounds.

Where two headings read alike, the source gives them in different places.

The GI50 is the concentration giving 50% growth inhibition. On to `CN1CCC(Oc2ccc(-c3n[nH]c4ccc(C(=O)NC(c5ccccn5)C5CCC5)cc34)cc2)CC1` (stereo not drawn) [Example A210, N-(cyclobutyl(pyridin-2-yl)methyl)-3-(4-((1-methylpiperidin-4-yl)oxy)phenyl)-1H-indazole-5-carboxamide], for which the GI50 in experiment [1] is less than 0.1 µM; in experiment [2] (Homo sapiens, PA-1) it was less than 0.1 µM; in experiment [3] (Colon 12 TICs), 0.1 to 0.5 µM; in experiment [4] (Ovarian 2393A TICs) it was 0.1 to 0.5 µM.

As to `CC(C)(O)C1CCN(c2ccc(-c3n[nH]c4ccc(C(=O)NC(c5ccccn5)C5CC5)cc34)cc2)CC1` (stereo not drawn) [Example A180, N-(cyclopropyl(pyridin-2-yl)methyl)-3-(4-(4-(2-hydroxypropan-2-yl)piperidin-1-yl)phenyl)-1H-indazole-5-carboxamide], the GI50 is less than 0.1 µM in experiment [1] (setting [5]); 0.1 to 0.5 µM in experiment [2] (setting [6]); 0.1 to 0.5 µM in experiment [3] (colon TICs, Alamar Blue); 0.1 to 0.5 µM in experiment [4] (ovarian TICs, Alamar Blue).

`CN1CCC(Oc2ccc(-c3n[nH]c4ccc(C(=O)NC(c5ccccc5)C5CCOCC5)cc34)cc2)CC1` (stereo not drawn) [Example A177, 3-(4-((1-methylpiperidin-4-yl)oxy)phenyl)-N-(phenyl(tetrahydro-2H-pyran-4-yl)methyl)-1H-indazole-5-carboxamide]: the concentration for 50% growth inhibition (GI50) in experiment [1] (setting [5]) was less than 0.1 µM; in experiment [2] (setting [6]) it was 0.1 to 0.5 µM; in experiment [3] (colon TICs, Alamar Blue), 0.1 to 0.5 µM; in experiment [4] (ovarian TICs, Alamar Blue), 0.1 to 0.5 µM.

As to `O=CN1CCC(Oc2ccc(-c3n[nH]c4ccc(C(=O)NC(c5ccccc5F)C5CC5)cc34)cc2)CC1` (stereo not drawn) [Example A182], the GI50 in experiment [1] (setting [5]) was less than 0.1 µM; in experiment [2] (setting [6]), less than 0.1 µM; in experiment [3] (colon TICs, Alamar Blue) it was less than 0.1 µM; in experiment [4] (ovarian TICs, Alamar Blue), less than 0.1 µM.

Consider `O=C(N[C@@H](c1ncccc1Cl)C1CC1)c1ccc2[nH]nc(-c3ccc(OC4CCN(C5COC5)CC4)cc3)c2c1` [Example A215, (R)-N-((3-chloropyridin-2-yl)(cyclopropyl)methyl)-3-(4-((1-(oxetan-3-yl)piperidin-4-yl)oxy)phenyl)-1H-indazole-5-carboxamide], for which the GI50 in experiment [1] is less than 0.1 µM; in experiment [2] (Homo sapiens, PA-1), less than 0.1 µM; in experiment [3] (Colon 12 TICs), less than 0.1 µM; in experiment [4] (Ovarian 2393A TICs) it was 0.1 to 0.5 µM.

`O=CN1CCC(Oc2ccc(-c3n[nH]c4ccc(C(=O)NC(c5ccccn5)C5CC5)cc34)cc2)CC1` (stereo not drawn) [Example A160, N-(cyclopropyl(pyridin-2-yl)methyl)-3-(4-((1-formylpiperidin-4-yl)oxy)phenyl)-1H-indazole-5-carboxamide]: the GI50 is less than 0.1 µM in experiment [1] (setting [5]); 0.1 to 0.5 µM in experiment [2] (setting [6]); 0.1 to 0.5 µM in experiment [3] (colon TICs, Alamar Blue); 0.1 to 0.5 µM in experiment [4] (ovarian TICs, Alamar Blue).

On to `CC(C)(O)C1CCN(c2ccc(-c3n[nH]c4ccc(NC(=O)C(c5ccsc5)N5CCC5)cc34)cc2)CC1` (stereo not drawn) [Example A201, 2-(azetidin-1-yl)-N-(3-(4-(4-(2-hydroxypropan-2-yl)piperidin-1-yl)phenyl)-1H-indazol-5-yl)-2-(thiophen-3-yl)acetamide], for which the GI50 in experiment [1] (setting [5]) was less than 0.1 µM; in experiment [2] (setting [6]), less than 0.1 µM; in experiment [3] (colon TICs, Alamar Blue), less than 0.1 µM; in experiment [4] (ovarian TICs, Alamar Blue), less than 0.1 µM.

With `O=C(Nc1ccc2[nH]nc(-c3ccc(N4CCC(O)CC4)cc3)c2c1)C(c1ccsc1)N1CCC1` (stereo not drawn) [Example A200, 2-(azetidin-1-yl)-N-(3-(4-(4-hydroxypiperidin-1-yl)phenyl)-1H-indazol-5-yl)-2-(thiophen-3-yl)acetamide], the GI50 in experiment [1] (setting [5]) was less than 0.1 µM; in experiment [2] (setting [6]), less than 0.1 µM; in experiment [3] (colon TICs, Alamar Blue), 0.1 to 0.5 µM; in experiment [4] (ovarian TICs, Alamar Blue), less than 0.1 µM.

Regarding `O=C(Nc1ccc2[nH]nc(-c3ccc(N4CCOCC4)cc3)c2c1)C(c1ccsc1)N1CCC1` (stereo not drawn) [Example A172, 2-(azetidin-1-yl)-N-(3-(4-morpholinophenyl)-1H-indazol-5-yl)-2-(thiophen-3-yl)acetamide], the GI50 in experiment [1] (setting [5]) is less than 0.1 µM; in experiment [2] (setting [6]) it was less than 0.1 µM; in experiment [3] (colon TICs, Alamar Blue) it was less than 0.1 µM; in experiment [4] (ovarian TICs, Alamar Blue), less than 0.1 µM.
